Experimental data: patent EP0022117A2, “Metoclopramid resinate and medicament containing it” (Trenker, Ady, priority 1979, dated 1981)

How the values were obtained:
[1] = plasma half-life in the rat; assay type: in vivo; conditions: chez le rat, read-out: demi-vie plasmatique
[2] = plasma half-life in the dog; assay type: in vivo; conditions: chez le chien, read-out: demi-vie plasmatique

- half-life [1]: 1 to 1.5 h
- half-life [2]: 1 to 1.5 h
SMILES: CCN(CC)CCNC(=O)c1cc(Cl)c(N)cc1OC [Metoclopramide]
